From paper PMC6491818, “Novel 4-Acrylamido-Quinoline Derivatives as Potent PI3K/mTOR Dual Inhibitors: The Design, Synthesis, and in vitro and in vivo Biological Evaluation” (Frontiers in Chemistry, 2019)

How the values were obtained:
[1] = tested on: prostate cancer PC3 cell line; test: Anti-proliferative SRB assay, PC3; type: cell-based; conditions: PC3 cells, 72 h exposure
Method: (§1) The anti-proliferative activity of compounds was evaluated by sulforhodamin B (SRB) assay. After being cultured for 10 h, cells in 96-well plates were subjected to 72 h-exposure to serially diluted compound solutions. Cells were washed with PBS and fixed with trichloroacetic acid (10%, W/V) at 4°C for 1 h. Then, cells were successively washed with PBS, stained for 0.5 h with SRB (0.4%, dissolved in 1% acetic acid), and washed by 1% acetic acid for 5 times. Protein-bound dye was extracted with unbuffered Tris base (10 mmol). After calculating the percent inhibition from absorbance, measured at 515 nm with a multiscan spectrum (Thermo Electron Co., Vantaa, Finland), the curves were fitted in Graphpad Prism 5 to give GI50 values.

PI3Kα = PI3Kα (Homo sapiens, UniProt P42336); test: PI3Kα enzymatic assay (Kinase-Glo Luminescent Kinase assay); type: biochemical
Chain of PI3Kα (P42336 whole entry): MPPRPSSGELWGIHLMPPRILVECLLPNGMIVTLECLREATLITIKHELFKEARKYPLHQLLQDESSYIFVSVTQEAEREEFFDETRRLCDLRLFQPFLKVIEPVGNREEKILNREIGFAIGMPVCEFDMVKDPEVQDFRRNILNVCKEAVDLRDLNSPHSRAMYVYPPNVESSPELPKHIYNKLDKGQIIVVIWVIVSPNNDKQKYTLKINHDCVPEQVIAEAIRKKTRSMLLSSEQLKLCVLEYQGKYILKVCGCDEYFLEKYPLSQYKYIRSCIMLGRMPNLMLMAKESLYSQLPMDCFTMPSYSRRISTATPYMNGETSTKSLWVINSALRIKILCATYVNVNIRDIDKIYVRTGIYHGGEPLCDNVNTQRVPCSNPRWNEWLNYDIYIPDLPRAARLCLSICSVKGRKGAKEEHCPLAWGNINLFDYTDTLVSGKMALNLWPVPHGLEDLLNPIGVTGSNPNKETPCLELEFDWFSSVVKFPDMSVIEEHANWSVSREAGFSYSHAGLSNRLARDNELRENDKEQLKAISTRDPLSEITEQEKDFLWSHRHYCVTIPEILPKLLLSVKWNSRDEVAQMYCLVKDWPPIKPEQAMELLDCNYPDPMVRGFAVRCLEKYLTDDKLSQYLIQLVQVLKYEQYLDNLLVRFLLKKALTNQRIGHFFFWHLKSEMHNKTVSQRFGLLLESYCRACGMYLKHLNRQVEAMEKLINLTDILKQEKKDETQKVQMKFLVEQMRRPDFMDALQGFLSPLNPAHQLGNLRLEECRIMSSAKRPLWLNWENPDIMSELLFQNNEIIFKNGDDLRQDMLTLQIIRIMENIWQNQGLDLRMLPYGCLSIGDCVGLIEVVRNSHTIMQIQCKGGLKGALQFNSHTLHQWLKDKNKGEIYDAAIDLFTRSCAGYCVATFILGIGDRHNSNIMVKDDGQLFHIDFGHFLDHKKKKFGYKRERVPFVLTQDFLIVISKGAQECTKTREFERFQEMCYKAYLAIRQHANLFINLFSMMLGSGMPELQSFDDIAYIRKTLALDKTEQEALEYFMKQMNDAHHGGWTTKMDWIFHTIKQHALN
Chain of PI3Kα (P27986 whole entry partner): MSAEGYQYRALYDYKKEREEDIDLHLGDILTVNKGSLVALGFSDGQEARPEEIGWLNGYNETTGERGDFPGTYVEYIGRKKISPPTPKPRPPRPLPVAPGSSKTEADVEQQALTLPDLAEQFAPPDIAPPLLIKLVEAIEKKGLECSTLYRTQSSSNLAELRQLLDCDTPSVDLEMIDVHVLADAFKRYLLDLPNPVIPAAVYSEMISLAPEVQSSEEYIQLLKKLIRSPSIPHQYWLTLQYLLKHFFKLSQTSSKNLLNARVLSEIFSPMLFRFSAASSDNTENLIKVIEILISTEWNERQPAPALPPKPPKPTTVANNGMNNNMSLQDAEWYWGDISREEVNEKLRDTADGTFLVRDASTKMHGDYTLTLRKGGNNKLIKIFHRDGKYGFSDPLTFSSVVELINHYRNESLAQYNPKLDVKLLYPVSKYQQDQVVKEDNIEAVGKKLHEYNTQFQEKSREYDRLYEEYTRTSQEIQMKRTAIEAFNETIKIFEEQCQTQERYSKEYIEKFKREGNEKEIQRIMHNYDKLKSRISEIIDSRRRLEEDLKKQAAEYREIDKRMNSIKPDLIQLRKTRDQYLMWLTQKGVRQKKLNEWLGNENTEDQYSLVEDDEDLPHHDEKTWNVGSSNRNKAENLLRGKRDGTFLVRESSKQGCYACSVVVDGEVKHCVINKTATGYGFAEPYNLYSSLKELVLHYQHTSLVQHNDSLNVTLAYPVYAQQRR
Method: (§2) Kinase-Glo Luminescent Kinase assay (Promega) was performed to determine the PI3Kα inhibitory activity, while ADP-Glo Luminescent assay (Promega) was performed to identify the inhibitory activity against PI3Kβ, γ, or δ. The kinase buffer was composed of HEPES (50 mM, pH 7.5), MgCl2 (3 mM), EGTA (1 mM), NaCl (100 mM), CHAPS (0.03%) and DTT (2 mM). The serially diluted compound solutions (2.5 mL) were successively added to a 384-well plate. Afterwards, the solution of kinase (2.5 mL) in the kinase buffer and the solution of substrate (5 mL) in the kinase buffer containing PIP2 and ATP were added to each well of the assay plate for starting the reaction. Kinase buffer was added instead to the control well without enzyme. […] After being incubated at room temperature for 1 h, Kinase-Glo reagent (10 mL) was added to each well of the PI3Kα assay plate to quench the reaction. […] The mixture was treated briefly with centrifuge, shaken slowly, and equilibrated for 40 min. Kinase Detection reagent (10 mL) was added to each well. Before reading on a plate reader for luminescence, the resultant mixture was incubated at room temperature for 1 h. After calculating the percent inhibition from the RLU values, the curves were fitted in Graphpad Prism 5 to give IC50 values.

[2] = tested on: colorectal cancer HCT116 cell line; test: Anti-proliferative SRB assay, HCT116; type: cell-based; conditions: 72 h exposure; for GI50: Homo sapiens, HCT-116, HCT116 cells; for GI50 HCT116: HCT116 cells
Method: as §1

PI3Kδ = PI3Kδ (Homo sapiens, UniProt O00329); test: PI3Kδ enzymatic assay (ADP-Glo Luminescent assay); type: biochemical
Chain of PI3Kδ (O00329 whole entry): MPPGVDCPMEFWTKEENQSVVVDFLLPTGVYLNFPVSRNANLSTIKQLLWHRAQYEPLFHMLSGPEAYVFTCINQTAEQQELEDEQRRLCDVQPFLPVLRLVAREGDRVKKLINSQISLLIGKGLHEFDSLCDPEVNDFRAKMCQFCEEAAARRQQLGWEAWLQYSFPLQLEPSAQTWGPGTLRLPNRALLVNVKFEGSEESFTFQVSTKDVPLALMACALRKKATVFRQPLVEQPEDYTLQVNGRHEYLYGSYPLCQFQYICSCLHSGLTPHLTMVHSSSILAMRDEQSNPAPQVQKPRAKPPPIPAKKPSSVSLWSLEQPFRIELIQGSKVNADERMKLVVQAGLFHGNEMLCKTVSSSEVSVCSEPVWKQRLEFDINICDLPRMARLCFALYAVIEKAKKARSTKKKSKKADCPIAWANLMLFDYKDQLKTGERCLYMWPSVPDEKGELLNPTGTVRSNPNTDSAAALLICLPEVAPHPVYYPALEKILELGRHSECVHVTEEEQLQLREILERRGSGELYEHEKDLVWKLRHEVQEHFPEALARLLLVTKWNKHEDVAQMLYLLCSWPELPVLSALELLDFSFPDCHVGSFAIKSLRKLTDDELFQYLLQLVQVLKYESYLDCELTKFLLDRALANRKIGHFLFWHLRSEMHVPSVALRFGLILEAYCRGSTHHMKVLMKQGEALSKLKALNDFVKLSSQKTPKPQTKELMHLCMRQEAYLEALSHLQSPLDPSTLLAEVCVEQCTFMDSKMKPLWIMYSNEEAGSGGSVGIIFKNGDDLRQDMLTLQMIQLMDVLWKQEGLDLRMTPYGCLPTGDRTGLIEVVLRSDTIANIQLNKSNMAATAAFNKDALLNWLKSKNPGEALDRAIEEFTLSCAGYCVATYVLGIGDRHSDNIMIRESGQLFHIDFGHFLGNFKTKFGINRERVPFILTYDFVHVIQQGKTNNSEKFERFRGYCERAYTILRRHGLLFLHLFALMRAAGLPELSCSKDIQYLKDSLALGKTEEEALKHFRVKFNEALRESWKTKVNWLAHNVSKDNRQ
Chain of PI3Kδ (P27986 whole entry partner): as the sequence (P27986 whole entry partner) above
Method: as §2

PI3Kβ = PI3Kβ (Homo sapiens, UniProt P42338); test: PI3Kβ enzymatic assay (ADP-Glo Luminescent assay); type: biochemical
Chain of PI3Kβ (P42338 whole entry): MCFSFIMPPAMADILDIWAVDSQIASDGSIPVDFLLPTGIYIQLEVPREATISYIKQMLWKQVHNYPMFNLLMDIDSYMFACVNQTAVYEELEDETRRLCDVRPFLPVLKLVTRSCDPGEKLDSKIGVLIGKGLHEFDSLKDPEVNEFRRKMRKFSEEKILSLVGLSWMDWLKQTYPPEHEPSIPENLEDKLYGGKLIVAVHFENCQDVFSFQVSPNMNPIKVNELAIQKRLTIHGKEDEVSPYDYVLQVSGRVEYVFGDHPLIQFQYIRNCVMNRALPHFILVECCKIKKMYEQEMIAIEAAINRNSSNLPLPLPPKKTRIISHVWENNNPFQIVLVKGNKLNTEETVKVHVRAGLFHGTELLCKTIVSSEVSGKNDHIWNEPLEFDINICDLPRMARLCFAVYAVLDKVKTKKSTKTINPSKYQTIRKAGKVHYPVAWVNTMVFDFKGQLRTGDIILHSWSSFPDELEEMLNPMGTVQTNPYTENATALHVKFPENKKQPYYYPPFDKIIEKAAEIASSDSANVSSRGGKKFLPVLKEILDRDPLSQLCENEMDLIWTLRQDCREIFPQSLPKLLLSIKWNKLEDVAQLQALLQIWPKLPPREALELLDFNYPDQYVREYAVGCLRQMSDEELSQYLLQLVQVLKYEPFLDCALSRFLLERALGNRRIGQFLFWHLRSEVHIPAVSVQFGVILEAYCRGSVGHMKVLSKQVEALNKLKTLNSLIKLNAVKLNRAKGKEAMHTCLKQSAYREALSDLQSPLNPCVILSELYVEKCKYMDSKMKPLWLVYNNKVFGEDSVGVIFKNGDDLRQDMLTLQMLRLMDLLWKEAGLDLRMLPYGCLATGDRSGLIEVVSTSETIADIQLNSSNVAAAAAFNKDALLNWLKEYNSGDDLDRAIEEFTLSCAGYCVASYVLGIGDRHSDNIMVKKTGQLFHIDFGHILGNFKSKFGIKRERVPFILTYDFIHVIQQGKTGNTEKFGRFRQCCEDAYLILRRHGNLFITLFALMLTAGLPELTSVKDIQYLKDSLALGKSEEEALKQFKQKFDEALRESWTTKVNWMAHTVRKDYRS
Chain of PI3Kβ (P27986 whole entry partner): as the sequence (P27986 whole entry partner) above
Method: as §2

[3] = molecular target: mTOR (1362-end, Millipore) (Homo sapiens, UniProt P42345); test: mTOR enzymatic assay (Lance Ultra assay); type: biochemical
Method: The kinase buffer was composed of HEPES (50 mM, pH 7.5), MgCl2 (10 mM), EGTA (1 mM), MnCl2 (3 mM), Tween-20 (0.01%) and DTT (2 mM). The solution of substrate in the kinase buffer contained ULight-4E-BP1 peptide (Thr37/46, PE) and ATP. […] After being incubated at room temperature for 1 h, kinase detection buffer (10 mL) containing EDTA and Eu-anti-phospho-4E-BP1 antibody (Thr37/46, PE) was added to each well of the assay plate. Before reading on a plate reader, the mixture needs to be mixed briefly with centrifuge and then allowed to equilibrate for 1 h. After calculating the percent inhibition from Lance signal, the curves were fitted in Graphpad Prism 5 to give IC50 values.

PI3Kγ = PI3Kγ (Homo sapiens, UniProt P48736); test: PI3Kγ enzymatic assay (ADP-Glo Luminescent assay); type: biochemical
Chain of PI3Kγ (P48736 whole entry): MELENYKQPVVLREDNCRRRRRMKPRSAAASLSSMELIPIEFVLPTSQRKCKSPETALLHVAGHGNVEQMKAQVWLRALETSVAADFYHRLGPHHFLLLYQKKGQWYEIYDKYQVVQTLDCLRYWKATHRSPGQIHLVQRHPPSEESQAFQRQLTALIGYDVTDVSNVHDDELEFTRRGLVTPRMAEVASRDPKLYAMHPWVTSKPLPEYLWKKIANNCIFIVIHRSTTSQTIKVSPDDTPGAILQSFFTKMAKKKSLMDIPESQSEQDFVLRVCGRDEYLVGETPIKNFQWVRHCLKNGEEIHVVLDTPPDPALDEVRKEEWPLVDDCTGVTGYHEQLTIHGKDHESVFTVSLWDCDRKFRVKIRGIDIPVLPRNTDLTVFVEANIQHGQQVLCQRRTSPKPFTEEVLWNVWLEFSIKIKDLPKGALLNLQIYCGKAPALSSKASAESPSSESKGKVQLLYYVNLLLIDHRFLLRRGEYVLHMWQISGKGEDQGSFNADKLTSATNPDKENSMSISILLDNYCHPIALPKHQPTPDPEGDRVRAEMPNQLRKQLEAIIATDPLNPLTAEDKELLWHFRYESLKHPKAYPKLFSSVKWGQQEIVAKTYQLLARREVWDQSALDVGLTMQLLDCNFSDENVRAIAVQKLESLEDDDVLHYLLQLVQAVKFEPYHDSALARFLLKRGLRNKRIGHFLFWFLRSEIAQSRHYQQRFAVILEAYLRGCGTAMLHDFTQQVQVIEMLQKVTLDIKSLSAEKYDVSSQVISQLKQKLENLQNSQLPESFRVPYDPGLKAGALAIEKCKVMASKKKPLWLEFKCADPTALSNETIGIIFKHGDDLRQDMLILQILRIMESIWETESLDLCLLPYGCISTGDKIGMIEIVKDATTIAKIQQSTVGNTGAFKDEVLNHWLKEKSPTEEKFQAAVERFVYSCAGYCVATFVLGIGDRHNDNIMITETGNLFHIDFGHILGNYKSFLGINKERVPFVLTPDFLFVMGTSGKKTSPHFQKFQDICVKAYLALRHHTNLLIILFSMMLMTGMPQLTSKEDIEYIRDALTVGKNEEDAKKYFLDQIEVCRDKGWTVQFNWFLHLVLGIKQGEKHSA
Method: Kinase-Glo Luminescent Kinase assay (Promega) was performed to determine the PI3Kα inhibitory activity, while ADP-Glo Luminescent assay (Promega) was performed to identify the inhibitory activity against PI3Kβ, γ, or δ. The kinase buffer was composed of HEPES (50 mM, pH 7.5), MgCl2 (3 mM), EGTA (1 mM), NaCl (100 mM), CHAPS (0.03%) and DTT (2 mM). The serially diluted compound solutions […] were successively added to a 384-well plate. Afterwards, the solution of kinase […] in the kinase buffer and the solution of substrate (5 mL) in the kinase buffer containing PIP2 and ATP were added to each well of the assay plate for starting the reaction. Kinase buffer was added instead to the control well without enzyme. The final concentrations of PI3Kα, PI3Kβ, PI3Kγ, PI3Kδ, PIP2, and ATP in corresponding kinase reaction mixture were 1.65 nM, 4.8 nM, 7.6 nM, 5.7 nM, […], respectively. After being incubated at room temperature for 1 h, Kinase-Glo reagent […] was added to each well of the PI3Kα assay plate to quench the reaction. Subsequently, the mixture needs to be mixed briefly with centrifuge and shaken slowly for 15 min before being read on a plate reader for luminescence. As for PI3Kβ, γ, or δ, reaction mixture (5 mL) was transferred to a new 384-plate and ADP-Glo reagent (5 mL) was added for stopping the reaction. The mixture was treated briefly with centrifuge, shaken slowly, and equilibrated for 40 min. Kinase Detection reagent […] was added to each well. Before reading on a plate reader for luminescence, the resultant mixture was incubated at room temperature for 1 h. After calculating the percent inhibition from the RLU values, the curves were fitted in Graphpad Prism 5 to give IC50 values.

GI50 ([1]; Homo sapiens, PC-3, 72 h) [nM] | IC50 (PI3Kα) [nM] | GI50 [2] [nM] | IC50 (PI3Kδ) [nM] | IC50 (PI3Kβ) [nM] | GI50 [1] [nM] | GI50 HCT116 [2] | IC50 [3] [nM] | IC50 (PI3Kγ) [nM] | Structure (SMILES)
1900 | 0.63 | 700 |  |  |  |  |  |  | COc1ncc(-c2ccc3nccc(/C=C/C(=O)NC(C)(C)C)c3c2)cc1NS(=O)(=O)c1ccc(F)cc1F [8a, (E)-N-(tert-butyl)-3-(6-(5-((2,4-difluorophenyl)sulfonamido)-6-methoxypyridin-3-yl)quinolin-4-yl)acrylamide]
840 | 2.03 | 1130 |  |  |  |  |  |  | COCCNC(=O)/C=C/c1ccnc2ccc(-c3cnc(OC)c(NS(=O)(=O)c4ccc(F)cc4F)c3)cc12 [8b, (E)-3-(6-(5-((2,4-difluorophenyl)sulfonamido)-6-methoxypyridin-3-yl)quinolin-4-yl)-N-(2-methoxyethyl)acrylamide]
< 500 | 0.67 | 960 | 1.3 | 1.2 | 450 | sub-micromolar | 1.2 | 0.5 | COc1ncc(-c2ccc3nccc(/C=C/C(=O)N(C)CCO)c3c2)cc1NS(=O)(=O)c1ccc(F)cc1F [8c, (E)-3-(6-(5-((2,4-difluorophenyl)sulfonamido)-6-methoxypyridin-3-yl)quinolin-4-yl)-N-(2-hydroxyethyl)-N-methylacrylamide]
1870 | 1.03 | 1560 |  |  |  |  |  |  | COc1ncc(-c2ccc3nccc(/C=C/C(=O)NC4CC4)c3c2)cc1NS(=O)(=O)c1ccc(F)cc1F [8d, (E)-N-cyclopropyl-3-(6-(5-((2,4-difluorophenyl)sulfonamido)-6-methoxypyridin-3-yl)quinolin-4-yl)acrylamide]
1480 | 1.43 | 1250 |  |  |  |  |  |  | COc1ncc(-c2ccc3nccc(/C=C/C(=O)NC4CCC4)c3c2)cc1NS(=O)(=O)c1ccc(F)cc1F [8e, (E)-N-cyclobutyl-3-(6-(5-((2,4-difluorophenyl)sulfonamido)-6-methoxypyridin-3-yl)quinolin-4-yl)acrylamide]
950 | 0.62 | 1460 |  |  |  |  |  |  | COc1ncc(-c2ccc3nccc(/C=C/C(=O)N4CCCC4)c3c2)cc1NS(=O)(=O)c1ccc(F)cc1F [8f, (E)-2,4-difluoro-N-(2-methoxy-5-(4-(3-oxo-3-(pyrrolidin-1-yl)prop-1-en-1-yl)quinolin-6-yl)pyridin-3-yl)benzenesulfonamide]
2500 | 0.68 | 1300 |  |  |  |  |  |  | COc1ncc(-c2ccc3nccc(/C=C/C(=O)N4CCCCC4)c3c2)cc1NS(=O)(=O)c1ccc(F)cc1F [8g, (E)-2,4-difluoro-N-(2-methoxy-5-(4-(3-oxo-3-(piperidin-1-yl)prop-1-en-1-yl)quinolin-6-yl)pyridin-3-yl)benzenesulfonamide]
< 500 | 0.53 | 510 |  |  | 360 | sub-micromolar |  |  | COc1ncc(-c2ccc3nccc(/C=C/C(=O)N4CCOCC4)c3c2)cc1NS(=O)(=O)c1ccc(F)cc1F [8h, (E)-2,4-difluoro-N-(2-methoxy-5-(4-(3-morpholino-3-oxoprop-1-en-1-yl)quinolin-6-yl)pyridin-3-yl)benzenesulfonamide]
880 | 1.9 | 970 |  |  |  |  |  |  | COc1ncc(-c2ccc3nccc(/C=C/C(=O)N4CCN(C(C)C)CC4)c3c2)cc1NS(=O)(=O)c1ccc(F)cc1F [8j, (E)-2,4-difluoro-N-(5-(4-(3-(4-isopropylpiperazin-1-yl)-3-oxoprop-1-en-1-yl)quinolin-6-yl)-2-methoxypyridin-3-yl)benzenesulfonamide]
< 500 | 0.79 | 320 |  |  | 280 | sub-micromolar |  |  | COc1ncc(-c2ccc3nccc(/C=C/C(=O)N4CCC(O)CC4)c3c2)cc1NS(=O)(=O)c1ccc(F)cc1F [8k, (E)-2,4-difluoro-N-(5-(4-(3-(4-hydroxypiperidin-1-yl)-3-oxoprop-1-en-1-yl)quinolin-6-yl)-2-methoxypyridin-3-yl)benzenesulfonamide]
1310 | 0.75 | 1560 |  |  |  |  |  |  | COc1ncc(-c2ccc3nccc(/C=C/C(=O)N4CCCC(O)C4)c3c2)cc1NS(=O)(=O)c1ccc(F)cc1F (stereo not shown) [8l, (E)-2,4-difluoro-N-(5-(4-(3-(3-hydroxypiperidin-1-yl)-3-oxoprop-1-en-1-yl)quinolin-6-yl)-2-methoxypyridin-3-yl)benzenesulfonamide]
2560 | 0.68 | 1290 |  |  |  |  |  |  | COc1ncc(-c2ccc3nccc(/C=C/C(=O)N4CCC(CO)CC4)c3c2)cc1NS(=O)(=O)c1ccc(F)cc1F [8m, (E)-2,4-difluoro-N-(5-(4-(3-(4-(hydroxymethyl)piperidin-1-yl)-3-oxoprop-1-en-1-yl)quinolin-6-yl)-2-methoxypyridin-3-yl)benzenesulfonamide]
1430 | 1.1 | 1790 |  |  |  |  |  |  | COc1ncc(-c2ccc3nccc(/C=C/C(=O)NCCN4CCOCC4)c3c2)cc1NS(=O)(=O)c1ccc(F)cc1F [8n, (E)-3-(6-(5-((2,4-difluorophenyl)sulfonamido)-6-methoxypyridin-3-yl)quinolin-4-yl)-N-(2-morpholinoethyl)acrylamide]
4830 | 1.8 | 1520 |  |  |  |  |  |  | COc1ncc(-c2ccc3nccc(/C=C/C(=O)Nc4ccccc4)c3c2)cc1NS(=O)(=O)c1ccc(F)cc1F [8o, (E)-3-(6-(5-((2,4-difluorophenyl)sulfonamido)-6-methoxypyridin-3-yl)quinolin-4-yl)-N-phenylacrylamide]
220 |  | 180 |  |  |  |  |  | 0.44 | COc1ncc(-c2ccc3nccc(-c4ccnnc4)c3c2)cc1NS(=O)(=O)c1ccc(F)cc1F [GSK2126458, reference compound]
7160 | 14.3 | 3670 |  |  |  |  |  |  | COc1ncc(-c2ccc3ncccc3c2)cc1NS(=O)(=O)c1ccc(F)cc1F [compound 10, 2,4-Difluoro-N-(2-methoxy-5-(quinolin-6-yl)pyridin-3-yl)benzenesulfonamide]
